Results taken from patent US20250188043A1 (ReproNovo SA, priority 2023, published 2025).
pIC50: −log10 of the molar value. In brackets after ≈: the same amount, converted by molar mass.

Tests used:
[1] = Effect of oxygen (high oxygen content air or N2); type: physicochemical; conditions: high oxygen content air or inert atmosphere (N2)
Source text: Oxidative degradation of leflutrozole is the primary pathway by which leflutrozole degrades outside of the synthesis process. Defluorination and oxidation that coincides with removal of the […] moiety yields the compound of Formula IV.

[2] = Dynamic vapor sorption (DVS); type: physicochemical
Protocol: Crystalline Form A leflutrozole was determined to be non-hygroscopic.

[3] = Chemical stability stress test: bulk solid and suspensions in buffer; type: physicochemical; conditions: for Leflutrozole Peak Area, After: 1 week; for degradation: all suspensions tested
Protocol: The stress test conditions were bulk crystalline solid at room temperature (RT, about 25° C.) and 80° C. for one week or storage in buffer solutions of different pH (1, 4, and 7.4) at RT or at 80° C. for one week. Additional experiments were performed at 50° C. if degradation by more than 5% was observed during the analogous 80° C. experiment.

Thermodynamic solubility = type: physicochemical; conditions: thermodynamic from solid
[4] = Intrinsic dissolution rate; type: physicochemical; conditions: for Intrinsic DR value: 37° C., 50 rpm, 720 min
Protocol: The intrinsic dissolution rate is very low for Form A of leflutrozole, even in the presence of sodium dodecyl sulfate (SDS). The rate was determined in 0.1 N hydrochloric acid (HCl) and 0.001 N HCl.

[5] = Dissolution experiments with capsules; type: physicochemical; conditions: drug substance particle sizes up to D90 ≤35 μm
CYP2E1 = target: T1, CYP2E1 (Homo sapiens, UniProt P05181); experiment: CYP inhibition, pooled human liver microsomes, probe substrates; type: in vitro ADME; conditions: up to 100 μM
T1 construct: assessed by pooled human liver microsomes using enzyme selective probe substrates; from tissue; host or cells: pooled human liver microsomes
T1 sequence (P05181 whole entry): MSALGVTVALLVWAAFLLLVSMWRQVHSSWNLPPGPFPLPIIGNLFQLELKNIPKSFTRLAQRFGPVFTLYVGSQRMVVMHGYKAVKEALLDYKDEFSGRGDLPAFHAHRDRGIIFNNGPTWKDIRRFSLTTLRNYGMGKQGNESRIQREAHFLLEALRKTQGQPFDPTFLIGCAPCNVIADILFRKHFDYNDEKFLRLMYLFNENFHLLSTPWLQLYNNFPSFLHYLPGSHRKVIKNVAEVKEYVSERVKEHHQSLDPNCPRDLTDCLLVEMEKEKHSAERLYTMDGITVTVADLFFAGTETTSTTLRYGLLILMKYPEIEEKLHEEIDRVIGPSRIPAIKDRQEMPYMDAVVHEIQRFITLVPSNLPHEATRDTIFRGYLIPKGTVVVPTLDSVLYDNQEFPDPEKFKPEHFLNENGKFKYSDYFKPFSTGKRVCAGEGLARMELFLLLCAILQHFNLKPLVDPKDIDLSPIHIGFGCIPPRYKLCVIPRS

CYP2C9 = target: T2, CYP2C9 (Homo sapiens, UniProt P11712); experiment: as above; type: in vitro ADME; conditions: up to 100 μM
T2 construct: assessed by pooled human liver microsomes using enzyme selective probe substrates; from tissue; host or cells: pooled human liver microsomes
T2 sequence (P11712 whole entry): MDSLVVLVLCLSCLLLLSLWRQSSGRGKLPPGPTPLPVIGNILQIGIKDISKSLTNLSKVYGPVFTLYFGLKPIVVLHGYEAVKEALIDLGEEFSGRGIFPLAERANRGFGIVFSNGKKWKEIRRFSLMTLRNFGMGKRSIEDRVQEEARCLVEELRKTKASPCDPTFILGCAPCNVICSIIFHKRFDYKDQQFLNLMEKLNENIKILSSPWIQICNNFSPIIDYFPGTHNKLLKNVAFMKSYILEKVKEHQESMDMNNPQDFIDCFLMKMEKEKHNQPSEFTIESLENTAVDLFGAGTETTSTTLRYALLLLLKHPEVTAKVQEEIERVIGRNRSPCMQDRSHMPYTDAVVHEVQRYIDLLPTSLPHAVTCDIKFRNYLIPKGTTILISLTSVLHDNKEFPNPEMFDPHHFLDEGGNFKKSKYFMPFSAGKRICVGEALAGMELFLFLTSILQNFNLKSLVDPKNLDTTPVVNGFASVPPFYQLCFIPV

[6] = Excretion/elimination of 14C-labeled leflutrozole after oral dosing; type: in vivo; conditions: female rats
[7] = Metabolic stability in human liver microsomes; type: in vitro ADME
CYP3A4/5 = experiment: CYP inhibition, pooled human liver microsomes, probe substrates; type: in vitro ADME; conditions: up to 100 μM
[8] = system: obese and overweight men with hypogonadism and low total motile sperm count; experiment: Extension of treatment to 48 total weeks; type: in vivo, human; conditions: for serum testosterone change from baseline / serum testosterone level: 48-week period
[9] = Metabolic stability in rat liver microsomes; type: in vitro ADME
[10] = Pharmacokinetics in naïve female mice; conditions: mouse, in vivo, NMP-PEG300 10/90
CYP2C19 = target: T3, CYP2C19 (Homo sapiens, UniProt P33261); experiment: CYP inhibition, pooled human liver microsomes, probe substrates; type: in vitro ADME; conditions: up to 100 μM
T3 construct: assessed by pooled human liver microsomes using enzyme selective probe substrates; from tissue; host or cells: pooled human liver microsomes
T3 sequence (P33261 whole entry): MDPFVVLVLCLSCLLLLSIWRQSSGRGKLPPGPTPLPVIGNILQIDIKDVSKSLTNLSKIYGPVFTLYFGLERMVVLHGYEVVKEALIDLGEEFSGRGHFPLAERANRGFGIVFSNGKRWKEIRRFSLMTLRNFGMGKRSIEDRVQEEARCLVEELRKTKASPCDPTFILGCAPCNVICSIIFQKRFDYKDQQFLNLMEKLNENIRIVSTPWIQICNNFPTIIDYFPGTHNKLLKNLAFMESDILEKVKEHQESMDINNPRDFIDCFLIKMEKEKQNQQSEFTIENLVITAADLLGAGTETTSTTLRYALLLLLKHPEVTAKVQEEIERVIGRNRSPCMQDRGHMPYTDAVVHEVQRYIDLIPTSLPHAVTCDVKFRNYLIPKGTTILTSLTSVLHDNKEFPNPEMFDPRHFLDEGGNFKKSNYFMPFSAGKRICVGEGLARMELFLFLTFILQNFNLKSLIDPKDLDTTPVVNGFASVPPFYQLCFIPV

N#Cc1ccc(C(F)(c2ccc(C#N)cc2)n2cncn2)cc1 [Form A leflutrozole, 4-[(4-cyanophenyl)-fluoro-(1,2,4-triazol-1-yl)methyl]benzonitrile]
degradation on exposure to air (in words) [1]: does not degrade readily when exposed to air
hygroscopicity [2]: non-hygroscopic
maximum water uptake (DVS) ([2]; 25° C., up to 95% relative humidity): < 0.2%
Leflutrozole Peak Area, After ([3]; Bulk Solid, RT): 99.6% peak area
Leflutrozole Peak Area, After ([3]; Bulk solid, 80° C., listed as Form A of leflutrozole): 99.7 % peak area
Leflutrozole Peak Area, After ([3]; Bulk solid, 80° C., listed as crystalline Form A leflutrozole): 99.7% peak area
Leflutrozole Peak Area, After ([3]; Suspension in buffer, pH 1, 50° C.): 79.8% peak area
Leflutrozole Peak Area, After ([3]; Suspension in buffer, pH 1, 80° C.): 18.5% peak area
Leflutrozole Peak Area, After ([3]; Suspension in buffer, pH 4, 50° C.): 94.3% peak area
Leflutrozole Peak Area, After ([3]; Suspension in buffer, pH 4, 80° C.): 0.6% peak area
Leflutrozole Peak Area, After ([3]; Suspension in buffer, pH 7.4, 50° C.): 95.5% peak area
Leflutrozole Peak Area, After ([3]; Suspension in buffer, pH 7.4, 80° C.): 1.1% peak area
degradation ([3]; 1 week at 50° C.): > 4%
degradation ([3]; 80° C. for 1 week, irrespective of buffer pH): > 80%
Leflutrozole Peak Area, Before ([3]; before stress test): 99.7% peak area
major decomposition product ([3]; sample stored at pH 7.4 and 80° C., LC-MS): compound of Formula (IV)
solubility thermodynamic (Thermodynamic solubility; 0.05 M potassium biphthalate buffer, aqueous buffer, 0.05M buffer pH 3 - Potassium Biphthalate): < 30 µg/mL
solubility thermodynamic (Thermodynamic solubility; 0.05 M potassium chloride buffer, aqueous buffer, 0.05M buffer pH 1 - Potassium Chloride): < 30 µg/mL
solubility thermodynamic (Thermodynamic solubility; 0.05 M potassium phosphate buffer, aqueous buffer, 0.05M buffer pH 6.86 - Potassium Phosphate): < 30 µg/mL
solubility thermodynamic (Thermodynamic solubility; 0.05 M sodium acetate buffer, aqueous buffer, 0.05M buffer pH 4.63 - Sodium Acetate): < 30 µg/mL
solubility thermodynamic (Thermodynamic solubility; 1% Cremophor EL in water, aqueous with cosolvent or surfactant or cyclodextrin): < 30 µg/mL
solubility thermodynamic (Thermodynamic solubility; 1% Tween 80 in water, aqueous with cosolvent or surfactant or cyclodextrin): < 30 µg/mL
solubility thermodynamic (Thermodynamic solubility; 1% sodium dioctyl sulfosuccinate in water, aqueous with cosolvent or surfactant or cyclodextrin): 170 µg/mL (≈ 561 µM)
solubility thermodynamic (Thermodynamic solubility; 1% sodium lauryl sulfate in water, aqueous with cosolvent or surfactant or cyclodextrin): 470 µg/mL (≈ 1550 µM)
solubility thermodynamic (Thermodynamic solubility; 10% Cremophor EL in water, aqueous with cosolvent or surfactant or cyclodextrin): 190 µg/mL (≈ 626 µM)
solubility thermodynamic (Thermodynamic solubility; 10% PEG400 in water, aqueous with cosolvent or surfactant or cyclodextrin): < 30 µg/mL
solubility thermodynamic (Thermodynamic solubility; 10% PG in water, aqueous with cosolvent or surfactant or cyclodextrin): < 30 µg/mL
solubility thermodynamic (Thermodynamic solubility; 10% ethanol in water, aqueous with cosolvent or surfactant or cyclodextrin): < 30 µg/mL
solubility thermodynamic (Thermodynamic solubility; 20% hydroxypropyl β-cyclodextrin in water, aqueous with cosolvent or surfactant or cyclodextrin): 870 µg/mL (≈ 2870 µM)
solubility thermodynamic (Thermodynamic solubility; 20% sulfobutyl ether β-cyclodextrin (Captisol) in water, aqueous with cosolvent or surfactant or cyclodextrin): 1050 µg/mL (≈ 3460 µM)
solubility thermodynamic (Thermodynamic solubility; Cremophor EL, organic solvent or mixture): 280 µg/mL (≈ 923 µM)
solubility thermodynamic (Thermodynamic solubility; FaSSIF): < 30 µg/mL
solubility thermodynamic (Thermodynamic solubility; FeSSIF): < 30 µg/mL
solubility thermodynamic (Thermodynamic solubility; Miglyol, oil or lipid): 720 µg/mL (≈ 2370 µM)
solubility thermodynamic (Thermodynamic solubility; SGF, simulated gastric fluid): < 30 µg/mL
solubility thermodynamic (Thermodynamic solubility; aqueous buffer, 0.05M buffer pH 7.4 - Potassium Phosphate): < 30 µg/mL
solubility thermodynamic (Thermodynamic solubility; aqueous buffer, 0.05M buffer pH 9 - Boric Acid): < 30 µg/mL
solubility thermodynamic (Thermodynamic solubility; aqueous buffer, pH 12 - 0.1N Sodium Hydroxide): < 30 µg/mL
solubility thermodynamic (Thermodynamic solubility; ethanol, organic solvent or mixture): 3840 µg/mL (≈ 12700 µM)
solubility thermodynamic (Thermodynamic solubility; polyethylene glycol 400, organic solvent or mixture): 6230 µg/mL (≈ 20500 µM)
solubility thermodynamic (Thermodynamic solubility; propylene glycol, organic solvent or mixture): 2270 µg/mL (≈ 7480 µM)
solubility thermodynamic (Thermodynamic solubility; water): < 30 µg/mL
Intrinsic DR value ([4]; HCl 0.001N + 1% SDS): 0.0167 mg/min/cm^2
Intrinsic DR value ([4]; HCl 0.1N + 1% SDS): 0.0162 mg/min/cm^2
intrinsic dissolution rate (in words) ([4]; even in the presence of sodium dodecyl sulfate): very low

N#Cc1ccc(C(F)(c2ccc(C#N)cc2)n2cncn2)cc1 [leflutrozole, 4-[(4-cyanophenyl)-fluoro-(1,2,4-triazol-1-yl)methyl]benzonitrile]
influence of particle size on dissolution of capsules [5]: no relevant influence on dissolution
pIC50 (CYP2E1): < 4.30
pIC50 (CYP2C9): < 4.30
predominant mechanism of elimination [6]: metabolism
unchanged leflutrozole excreted via urine ([6]; oral dosing): 9%
half-life ([6]; rat, plasma, oral): 78 h
half-life [7]: 3.35 h
CLint scaled ([7]; read-out: intrinsic clearance (CLint)): 6.9 mL/min/kg
pIC50 (CYP3A4/5): < 4.30
bone specific alkaline phosphatase ([8]; 0.1 mg treatment arm only): significant increase
serum testosterone change from baseline ([8]; 0.1 mg): 243.0 ng/dL
serum testosterone level ([8]; 0.1 mg): 494.9 ng/dL
serum testosterone change from baseline ([8]; 0.3 mg): 290.6 ng/dL
serum testosterone level ([8]; 0.3 mg): 549.7 ng/dL
serum testosterone change from baseline ([8]; 1.0 mg): 376.2 ng/dL
serum testosterone level ([8]; 1.0 mg): 595.1 ng/dL
bone turnover markers (type I collagen C-telopeptides, procollagen-1 N-terminal propeptide, osteocalcin) ([8]; by week 48): increases in all leflutrozole treatment groups
change in BMD for the hip or femoral neck ([8]; week 48): no significant change
clinical meaning of reductions in BMD of the lumbar spine ([8]; week 48): did not indicate clinically meaningful osteopenia or osteoporosis
percentage decrease of lumbar BMD (DEXA) ([8]; week 48, any treatment group): ≥ −3%
CLint scaled [9]: < 4.6 mL/min/kg
half-life [9]: > 5 h
AUC(0-inf) ([10]; iv, 1 mg/kg i.v.): 34 µM·h
AUC(0-t) ([10]; iv, 1 mg/kg i.v.): 21 µM·h
clearance ([10]; iv, 1 mg/kg i.v.): 1.5 mL/min
half-life ([10]; iv, 1 mg/kg i.v.): 13 h
AUC(0-inf) ([10]; po, 2.5 mg/kg p.o.): 70.2 µM·h
AUC(0-t) ([10]; po, 2.5 mg/kg p.o.): 61.7 µM·h
Cmax ([10]; po, 2.5 mg/kg p.o.): 2930 nM
half-life ([10]; po, 2.5 mg/kg p.o.): 13 h
pIC50 (CYP2C19): < 4.30
